From patent US20230339871A1, “COMPOUNDS AND METHODS OF MODULATING 17B-HYDROXYSTEROID DEHYDROGENASE TYPE 13” (METREA BIOSCIENCES, INC., priority 2020, published 2023)

Legend:
IL-32 = IL-32 gene expression in HepG2 cells overexpressing HSD17B13 under fatty acid challenge; type: cell-based, human
Protocol: (§1) To examine the effect of HSD17B13 inhibitors on inflammatory cytokine expression HepG2 cells were exposed to various concentrations of HSD17B13 inhibitors. Briefly, HepG2 cells, an immortalized human liver cancer cell line, were modified to overexpress HSD17B13. Cells were grown in EMEM (ATCC) with 10% FBS and penicillin/streptomycin. One day prior to transfection 750,000 cells were plated per well in a 6 well plate and cultured overnight. […] of pCMV6-Entry-HSD17B13 or empty vector (Origene) were transfected using Lipofectamine 3000 (Invitrogen) and the cells were cultured for 24 hours. Cells were split into selection media ([…] G418 (Gibco)) and a stable pool was established and verified by qPCR and western blotting using an anti-Flag antibody (Genscript). HepG2 cells overexpressing HSD17B13 or empty vector control, were seeded at 400,000 cells per well in 12 well plates and cultured overnight. Media was replaced with serum-free EMEM and cultured an additional night. A 12 mM fatty acid stock of oleic acid/palmitate at a 2:1 ratio was prepared in 10% fatty acid free BSA (Sigma) by combining 8 mM oleic acid and 4 mM palmitate and rotating overnight at 30° C. The solution was then sonicated for an additional 45 minutes to solubilize.
[…] The cells were lysed in RLT buffer and RNA purified using a Qiagen RNeasy mini kit. RNA quality and concentration were determined on a Nanodrop. cDNA was synthesized from 1 μg RNA using iScript reverse transcription supermix (Biorad) and rtPCR performed with 1 μl cDNA using SsoAdvanced Universal Probes Supermix (Biorad). Taqman probes (Thermo Fisher) were used to look at effects of fatty acids and HSD17B13 inhibitors on IL-8 and IL-32 gene expression using GAPDH as an endogenous control.

HepG2 cells = assay: Toxicity to HepG2 cells in the cytokine expression experiment; type: cell-based, human; conditions: 30 μM
Protocol: as §1, with “A 12 mM fatty acid stock of oleic acid/palmitate at a 2:1 ratio was prepared in 10% fatty acid free BSA (Sigma) by combining 8 mM oleic acid and 4 mM palmitate and rotating overnight at 30° C. The solution was then sonicated for an additional 45 minutes to solubilize.” left out
(§2) […] RNA quality and concentration were determined on a Nanodrop. cDNA was synthesized from 1 μg RNA using iScript reverse transcription supermix (Biorad) and rtPCR performed with 1 μl cDNA using SsoAdvanced Universal Probes Supermix (Biorad). […]

[1] = target: T1, recombinant human full-length HSD17B13 protein (Homo sapiens, UniProt Q7Z5P4); assay: HSD17B13 96 luminescence inhibition assay (NAD(P)H-Glo); type: biochemical
T1 construct: recombinant human full-length HSD17B13 protein; 6xHis (C); made in house; host or cells: HEK293E-253/FH
T1 sequence (Q7Z5P4 20-300): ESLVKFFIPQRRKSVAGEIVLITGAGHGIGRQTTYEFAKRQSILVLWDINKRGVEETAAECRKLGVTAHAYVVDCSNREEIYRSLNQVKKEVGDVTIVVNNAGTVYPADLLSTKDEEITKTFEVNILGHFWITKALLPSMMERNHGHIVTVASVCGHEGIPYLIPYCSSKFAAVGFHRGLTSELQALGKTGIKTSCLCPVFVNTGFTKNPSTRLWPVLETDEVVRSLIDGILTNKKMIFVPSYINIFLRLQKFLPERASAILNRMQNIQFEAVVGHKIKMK
Protocol: Compounds of the present disclosure were tested for inhibition of HSD17B13 using the following protocol. Briefly, recombinant human full-length HSD17B13 protein with a 6X-C-terminal His tag was expressed in cell line HEK293E-253/FH and purified using Ni^2+-affinity purification. Enzymatic activity was determined through the production of NADH using the NAD(P)H-Glo Detection System (Promega). The inhibitory activity of test compounds was determined in reactions performed at 30° C. in assay buffer consisting of 25 mM EPPS (8.0), 125 mM NaCl, 0.03% Triton X-100, 0.03% BSA, with […] steroid substrate (1,3,5(10), 7-estratetraen-3, 17b-diol (Steraloids E0580)) added from a 2.5 mM DMSO stock and 500 mM NAD. The final percentage of DMSO was 4.5%. After a one-hour incubation, a 20% volume of luciferase Glo-reagent was added and light units captured on a Victor V Plate Reader (Perkin Elmer).
Concentration-response curves for inhibitors were normalized to control samples containing enzyme only (negative control) and sample without enzyme (positive control). 50% inhibition (IC50) values were determined using a nonlinear least squares fit of the data to a four-parameter equation using Prism 6.0 (GraphPad Software, San Diego).

IL-8 = IL-8 gene expression in HepG2 cells overexpressing HSD17B13 under fatty acid challenge; type: cell-based, human
Protocol: as §1, with “A 12 mM fatty acid stock of oleic acid/palmitate at a 2:1 ratio was prepared in 10% fatty acid free BSA (Sigma) by combining 8 mM oleic acid and 4 mM palmitate and rotating overnight at 30° C. The solution was then sonicated for an additional 45 minutes to solubilize.” left out
as §2

[2] = RESOLVE-IT, NCT02704403; cited from earlier work
[3] = 3 µM, 10 µM, or 30 µM, saturated fatty acid NASH challenge
[4] = 3-hour exposure to 3 μM, 10 μM, or 30 μM, fold change relative to untreated cells

CS(=O)(=O)c1cccc(CN2C(=O)S/C(=C\c3c(F)cc(F)c(O)c3F)C2=O)c1 [Compound 5, (Z)-3-(3-(methylsulfonyl)benzyl)-5-(2,4,6-trifluoro-3-hydroxybenzylidene) thiazolidine-2,4-dione]
reduction in IL-32 expression (IL-32; 3 μM dose): 60-70% | expression of IL-32 (FIG. 1B) (IL-32; [3]): decreased expression | relative expression levels of IL-32 (IL-32; [4]): decreased | toxicity to the cells (HepG2 cells): some toxicity | IC50 [1]: ≤ 1000 nM | expression of IL-8 (FIG. 1A) (IL-8; [3]): decreased expression | relative expression levels of IL-8 (IL-8; [4]): decreased

CSc1ccc(C(=O)/C=C/c2cc(C)c(OC(C)(C)C(=O)O)c(C)c2)cc1 [Elafibranor]
Status (as of May 2020) [2]: Completed - failed

CS(=O)(=O)c1cccc(CN2C(=O)S/C(=C\c3ccc(F)c(O)c3)C2=O)c1 [Compound 12, (Z)-5-(4-fluoro-3-hydroxybenzylidene)-3-(3-(methylsulfonyl)benzyl)thiazolidine-2,4-dione]
IC50 [1]: 1000 to 5000 nM

O=C(c1ccc(F)c(O)c1)c1ccc(-c2ccc(F)c(O)c2F)s1 [Compound 28, (5-(2,4-difluoro-3-hydroxyphenyl)thiophen-2-yl)(4-fluoro-3-hydroxyphenyl) methanone]
IC50 [1]: 1000 to 5000 nM
